For 19 compounds, IC50 results are on record in US20170334899A1, “AMINO-SUBSTITUTED ISOTHIAZOLES” (Bayer Pharma Aktiengesellschaft, priority 2014, published 2017).

For one assay, the target named is T1, CDK2/CycE (Homo sapiens, UniProt P24941).
T1 construct: GST; purchased ProQinase GmbH (Freiburg, Germany); host or cells: insect cells (Sf9)
Kind of assay: CDK2/CycE kinase assay (TR-FRET). The following applies: avg, read-out: CDK2 avg (IC50 [mol/l]). The assay is classed as biochemical. The text has this: CDK2/CycE -inhibitory activity of compounds of the present invention was quantified employing the CDK2/CycE TR-FRET assay as described in the following paragraphs.
Recombinant fusion proteins of GST and human CDK2 and of GST and human CycE, expressed in insect cells (Sf9) and purified by Glutathion-Sepharose affinity chromatography, were purchased from ProQinase GmbH (Freiburg, Germany). As substrate for the kinase reaction biotinylated peptide biotin-Ttds-YISPLKSPYKISEG (C-terminus in amid form) was used which can be purchased e.g. form the company JERINI peptide technologies (Berlin, Germany).
For the assay 50 nl of a 100fold concentrated solution of the test compound in DMSO was pipetted into a black low volume 384we11 microtiter plate (Greiner Bio-One, Frickenhausen, Germany), 2 μl of a solution of CDK2/CycE in aqueous assay buffer [50 mM Tris/HCl pH 8.0, 10 mM MgCl2, 1.0 mM dithiothreitol, 0.1 mM sodium ortho-vanadate, 0.01% (v/v) Nonidet-P40 (Sigma)] were added and the mixture was incubated for 15 min at 22° C. to allow pre-binding of the test compounds to the enzyme before the start of the kinase reaction. Then the kinase reaction was started by the addition of 3 μl of a solution of adenosine-tri-phosphate (ATP, 16.7 μM=>final conc. in the 5 μl assay volume is 10 μM) and substrate (1.25 μM=>final conc. in the 5 μl assay volume is 0.75 μM) in assay buffer and the resulting mixture was incubated for a reaction time of 25 min at 22° C. The concentration of CDK2/CycE was adjusted depending of the activity of the enzyme lot and was chosen appropriate to have the assay in the linear range, typical concentrations were in the range of 130 ng/ml. The reaction was stopped by the addition of 5 μl of a solution of TR-FRET detection reagents (0.2 μM streptavidine-XL665 [Cisbio Bioassays, Codolet, France] and 1 nM anti-RB(pSer807/pSer811)-antibody from BD Pharmingen [#558389] and 1.2 nM LANCE EU-W1024 labeled anti-mouse IgG antibody [Perkin-Elmer, product no. AD0077, as an alternative a Terbium-cryptate-labeled anti-mouse IgG antibody from Cisbio Bioassays can be used]) in an aqueous EDTA-solution (100 mM EDTA, 0.2% (w/v) bovine serum albumin in 100 mM HEPES/NaOH pH 7.0).
The resulting mixture was incubated 1 h at 22° C. to allow the formation of complex between the phosphorylated biotinylated peptide and the detection reagents. Subsequently the amount of phosphorylated substrate was evaluated by measurement of the resonance energy transfer from the Eu-chelate to the streptavidine-XL. Therefore, the fluorescence emissions at 620 nm and 665 nm after excitation at 350 nm was measured in a TR-FRET reader, e.g. a Rubystar (BMG Labtechnologies, Offenburg, Germany) or a Viewlux (Perkin-Elmer). The ratio of the emissions at 665 nm and at […] was taken as the measure for the amount of phosphorylated substrate. The data were normalised (enzyme reaction without inhibitor=0% inhibition, all other assay components but no enzyme=100% inhibition).
On the technique in general: In TR-FRET formats the signal depends on donor and acceptor labels being close together.

In the next assay the test system is HeLa. The assay can be described thus: Proliferation assay (crystal violet), HeLa. In kind it is cell-based. The following applies: HeLa cells, 4 days incubation, crystal violet staining, read-out: IC50 inhibition of proliferation, HeLa. A digest of the protocol:
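Seed 1000–5000 cells/well, 10% FCS; 24 h later replace medium and add compound (0.001–10 μM, 0.5% DMSO); incubate 4 d; glutaraldehyde fix, 0.1% crystal violet pH 3.0, elute with 10% acetic acid; A595; 4-parameter IC50.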

Like-named read-outs stand apart in the source and are kept apart here. Bounds are passed on as bounds.

As to `Cc1nsc(Nc2cnc(C(F)(F)F)cn2)c1C(=O)Nc1ccc(F)c(OCC2CCCN(CC(F)F)C2)c1` (centres unmarked) [Example 335, N-(3-{[1-(2,2-difluoroethyl)piperidin-3-yl]methoxy}-4-fluorophenyl)-3-methyl-5-{[5-(trifluoromethyl)pyrazin-2-yl]amino}-1,2-thiazole-4-carboxamide], the IC50 on CDK2/CycE was no less than 20 µM; in the assay on HeLa it was 0.84 µM.
Consider `Cc1nsc(Nc2cnc(C(F)(F)F)cn2)c1C(=O)Nc1ccc(OC2CCN(CCC(F)(F)F)CC2)nc1` [Example 10, 3-Methyl-5-{[5-(trifluoromethyl)pyrazin-2-yl]amino}-N-(6-{[1-(3,3,3-trifluoropropyl)-piperidin-4-yl]oxy}pyridin-3-yl)-1,2-thiazole-4-carboxamide], for which the IC50 is no less than 20 µM on CDK2/CycE and 0.33 µM with HeLa (Homo sapiens, HeLa, 96 h).
For the compound `Cc1nsc(Nc2cnc3ccccc3n2)c1C(=O)Nc1ccc(N2CCOCC2)nc1` [Example 169, 3-methyl-N-[6-(morpholin-4-yl)pyridin-3-yl]-5-(quinoxalin-2-ylamino)-1,2-thiazole-4-carboxamide], the IC50 at CDK2/CycE is greater than 20 µM; in the assay with HeLa (Homo sapiens, HeLa, 96 h) it was greater than 10 µM.
For the compound `Cc1nsc(Nc2cnc(C(F)(F)F)cn2)c1C(=O)Nc1ccc(OCC2CCN(CCC(F)(F)F)C2)nc1` (centres unmarked) [Example 124, 3-methyl-5-{[5-(trifluoromethyl)pyrazin-2-yl]amino}-N-(6-{[1-(3,3,3-trifluoropropyl)pyrrolidin-3-yl]methoxy}pyridin-3-yl)-1,2-thiazole-4-carboxamide], the IC50 at CDK2/CycE is no less than 20 µM; in the assay with HeLa (Homo sapiens, HeLa, 96 h), 0.36 µM.
For `Cc1nsc(Nc2cnc3ccccc3n2)c1C(=O)Nc1cccc(C(=O)N2CCNCC2)c1` [Example 101, 3-Methyl-N-[3-(piperazin-1-ylcarbonyl)phenyl]-5-(quinoxalin-2-ylamino)-1,2-thiazole-4-carboxamide] the same measures were no less than 20 µM and 10 µM.
With `Cc1nsc(Nc2cnc(C(F)(F)F)cn2)c1C(=O)Nc1ccc(C(=O)NCCN2CCCC(F)(F)C2)cc1` [Example 153, N-(4-{[2-(3,3-difluoropiperidin-1-yl)ethyl]carbamoyl}phenyl)-3-methyl-5-{[5-(trifluoromethyl)pyrazin-2-yl]amino}-1,2-thiazole-4-carboxamide], the IC50 is greater than 20 µM at CDK2/CycE and 2.8 µM in the assay with HeLa (Homo sapiens, HeLa, 96 h).
On to `Cc1nsc(Nc2cnc3ccccc3n2)c1C(=O)Nc1ccc(C(=O)NCCN2CCCC(F)(F)C2)cc1` [Example 156, N-(4-{[2-(3,3-difluoropiperidin-1-yl)ethyl]carbamoyl}phenyl)-3-methyl-5-(quinoxalin-2-ylamino)-1,2-thiazole-4-carboxamide], for which the IC50 is greater than 20 µM on CDK2/CycE and greater than 10 µM with HeLa (Homo sapiens, HeLa, 96 h).
Consider `Cc1nsc(Nc2cncc(C(F)(F)F)n2)c1C(=O)Nc1ccc(C(=O)NCCN2CCCC(F)C2)cc1` (centres unmarked) [Example 155, N-(4-{[2-(3-fluoropiperidin-1-yl)ethyl]carbamoyl}phenyl)-3-methyl-5-{[6-(trifluoromethyl)pyrazin-2-yl]amino}-1,2-thiazole-4-carboxamide], for which the IC50 amounted to 4.1 µM at CDK2/CycE and 9.9 µM in the assay with HeLa (Homo sapiens, HeLa, 96 h).
For `CCCN1CC[C@H](Oc2ccc(NC(=O)c3c(C)nsc3Nc3cnc(C(F)(F)F)cn3)cn2)[C@H](F)C1` [Example 147, N-(6-{[(3R,4S)-3-fluoro-1-propylpiperidin-4-yl]oxy}pyridin-3-yl)-3-methyl-5-{[5-(trifluoromethyl)pyrazin-2-yl]amino}-1,2-thiazole-4-carboxamide], the IC50 on CDK2/CycE is greater than 20 µM; in the assay with HeLa (Homo sapiens, HeLa, 96 h), 0.32 µM.
As to `CCCCN1CC[C@@H](Oc2ccc(NC(=O)c3c(C)nsc3Nc3cnc(C(F)(F)F)cn3)cn2)[C@@H](F)C1` [Example 141, N-(6-{[(3S,4R)-1-butyl-3-fluoropiperidin-4-yl]oxy}pyridin-3-yl)-3-methyl-5-{[5-(trifluoromethyl)pyrazin-2-yl]amino}-1,2-thiazole-4-carboxamide], the IC50 at CDK2/CycE is greater than 20 µM; in the assay on HeLa (Homo sapiens, HeLa, 96 h), 0.34 µM.
For `Cc1nsc(Nc2cnc3ccccc3n2)c1C(=O)Nc1cccc(C(=O)N[C@@H](CCC(N)=O)C(=O)O)c1` [Example 103, N^2-[3-({[3-Methyl-5-(quinoxalin-2-ylamino)-1,2-thiazol-4-yl]carbonyl}amino)-benzoyl]glutamine], the IC50 is no less than 20 µM on CDK2/CycE and 10 µM with HeLa (Homo sapiens, HeLa, 96 h).
Turning to `Cc1nsc(Nc2cnc(C(F)(F)F)cn2)c1C(=O)Nc1ccc(OC2CCN(CC(F)(F)F)CC2)c(F)c1` [Example 163, N-(3-fluoro-4-{[1-(2,2,2-trifluoroethyl)piperidin-4-yl]oxy}phenyl)-3-methyl-5-{[5-(trifluoromethyl)pyrazin-2-yl]amino}-1,2-thiazole-4-carboxamide], the IC50 at CDK2/CycE was greater than 20 µM; with HeLa (Homo sapiens, HeLa, 96 h), 0.16 µM.
As to `Cc1nsc(Nc2cnc3ccccc3n2)c1C(=O)Nc1cccc(C(=O)N[C@H](C(=O)O)[C@@H](C)O)c1` [Example 105, N-[3-({[3-methyl-5-(quinoxalin-2-ylamino)-1,2-thiazol-4-yl]carbonyl}amino)-benzoyl]threonine], the IC50 is no less than 20 µM at CDK2/CycE and 10 µM in the assay on HeLa (Homo sapiens, HeLa, 96 h).
As for `CCCCN1CC[C@H](Oc2ccc(NC(=O)c3c(C)nsc3Nc3cnc(C(F)(F)F)cn3)cn2)[C@H](F)C1` [Example 148, N-(6-{[(3R,4S)-1-butyl-3-fluoropiperidin-4-yl]oxy}pyridin-3-yl)-3-methyl-5-{[5-(trifluoromethyl)pyrazin-2-yl]amino}-1,2-thiazole-4-carboxamide], the IC50 at CDK2/CycE was greater than 20 µM; in the assay on HeLa (Homo sapiens, HeLa, 96 h), 0.37 µM.
Taken in the same sequence, the figures for `CC(=O)N(C)CCOc1ccc(NC(=O)c2c(C)nsc2Nc2nc3c(C(F)(F)F)cccc3s2)cn1` [Example 112, N-(6-{2-[Acetyl(methyl)amino]-ethoxy}pyridin-3-yl)-3-methyl-5-{[4-(trifluoromethyl)-1,3-benzothiazol-2-yl]amino}-1,2-thiazole-4-carboxamide] were no less than 20 µM and 8.8 µM.
On to `Cc1nsc(Nc2cnc3ccccc3n2)c1C(=O)Nc1cccc(-c2nc(C(C)(C)C)no2)c1` [Example 108, N-[3-(3-tert-Butyl-1,2,4-oxadiazol-5-yl)phenyl]-3-methyl-5-(quinoxalin-2-ylamino)-1,2-thiazole-4-carboxamide], for which the IC50 on CDK2/CycE was no less than 20 µM; with HeLa (Homo sapiens, HeLa, 96 h) it was 0.91 µM.
For the compound `Cc1nsc(Nc2cnc3ccccc3n2)c1C(=O)Nc1cccc(C(=O)NCC(=O)O)c1` [Example 99, N-[3-({[3-Methyl-5-(quinoxalin-2-ylamino)-1,2-thiazol-4-yl]carbonyl}amino)benzoy]-glycine], the IC50 is no less than 20 µM on CDK2/CycE and 10 µM in the assay on HeLa (Homo sapiens, HeLa, 96 h).
With `Cc1nsc(Nc2cnc(C(F)(F)F)cn2)c1C(=O)Nc1ccc(O[C@@H]2CCN(CCC(F)(F)F)C[C@@H]2F)nc1` [Example 139, N-(6-{[(3S,4R)-3-fluoro-1-(3,3,3-trifluoropropyl)piperidin-4-yl]oxy}pyridin-3-yl)-3-methyl-5-{[5-(trifluoromethyl)pyrazin-2-yl]amino}-1,2-thiazole-4-carboxamide], the IC50 on CDK2/CycE is greater than 20 µM; in the assay with HeLa (Homo sapiens, HeLa, 96 h), 0.26 µM.
Consider `Cc1nsc(Nc2cc(C#N)ccn2)c1C(=O)Nc1cccc(C(=O)N2CCCC2)c1` [Example 114, 5-[(4-Cyanopyridin-2-yl)amino]-3-methyl-N-[3-(pyrrolidin-1-ylcarbonyl)phenyl]-1,2-thiazole-4-carboxamide], for which the IC50 was no less than 20 µM on CDK2/CycE and 10 µM in the assay with HeLa (Homo sapiens, HeLa, 96 h).
